{"source": "PubChem BioAssay (NCI)", "experiment_in_all_cases": "growth of human tumour cells (NCI), 48 h", "key": {"786-0 renal": {"test_system": "786-0 renal"}, "A498 renal": {"test_system": "A498 renal"}, "A549 NSCLC": {"test_system": "A549 NSCLC"}, "ACHN renal": {"test_system": "ACHN renal"}, "CAKI-1 renal": {"test_system": "CAKI-1 renal"}, "CCRF-CEM leukemia": {"test_system": "CCRF-CEM leukemia"}, "COLO 205 colon": {"test_system": "COLO 205 colon"}, "DLD-1 colon": {"test_system": "DLD-1 colon"}, "DMS 114 small cell lung": {"test_system": "DMS 114 small cell lung"}, "DMS 273 small cell lung": {"test_system": "DMS 273 small cell lung"}, "EKVX NSCLC": {"test_system": "EKVX NSCLC"}, "HCC-2998 colon": {"test_system": "HCC-2998 colon"}, "HCT-116 colon": {"test_system": "HCT-116 colon"}, "HCT-15 colon": {"test_system": "HCT-15 colon"}, "HL-60(TB) leukemia": {"test_system": "HL-60(TB) leukemia"}, "HOP-62 NSCLC": {"test_system": "HOP-62 NSCLC"}, "HOP-92 NSCLC": {"test_system": "HOP-92 NSCLC"}, "HT29 colon": {"test_system": "HT29 colon"}, "IGROV1 ovarian": {"test_system": "IGROV1 ovarian"}, "K-562 leukemia": {"test_system": "K-562 leukemia"}, "KM12 colon": {"test_system": "KM12 colon"}, "KM20L2 colon": {"test_system": "KM20L2 colon"}, "LOX IMVI melanoma": {"test_system": "LOX IMVI melanoma"}, "M14 melanoma": {"test_system": "M14 melanoma"}, "M19-MEL melanoma": {"test_system": "M19-MEL melanoma"}, "MALME-3M melanoma": {"test_system": "MALME-3M melanoma"}, "MOLT-4 leukemia": {"test_system": "MOLT-4 leukemia"}, "NCI-H460 lung": {"test_system": "NCI-H460 lung"}, "NCI-H522 lung": {"test_system": "NCI-H522 lung"}, "OVCAR-3 ovarian": {"test_system": "OVCAR-3 ovarian"}, "OVCAR-4 ovarian": {"test_system": "OVCAR-4 ovarian"}, "OVCAR-5 ovarian": {"test_system": "OVCAR-5 ovarian"}, "OVCAR-8 ovarian": {"test_system": "OVCAR-8 ovarian"}, "RPMI-8226 leukemia": {"test_system": "RPMI-8226 leukemia"}, "RXF 393 renal": {"test_system": "RXF 393 renal"}, "RXF-631 renal": {"test_system": "RXF-631 renal"}, "SF-268 CNS": {"test_system": "SF-268 CNS"}, "SF-295 CNS": {"test_system": "SF-295 CNS"}, "SF-539 CNS": {"test_system": "SF-539 CNS"}, "SK-MEL-2 melanoma": {"test_system": "SK-MEL-2 melanoma"}, "SK-MEL-28 melanoma": {"test_system": "SK-MEL-28 melanoma"}, "SK-MEL-5 melanoma": {"test_system": "SK-MEL-5 melanoma"}, "SK-OV-3 ovarian": {"test_system": "SK-OV-3 ovarian"}, "SN12C renal": {"test_system": "SN12C renal"}, "SNB-19 CNS": {"test_system": "SNB-19 CNS"}, "SNB-78 CNS": {"test_system": "SNB-78 CNS"}, "SW-620 colon": {"test_system": "SW-620 colon"}, "TK-10 renal": {"test_system": "TK-10 renal"}, "U251 CNS": {"test_system": "U251 CNS"}, "UACC-62 melanoma": {"test_system": "UACC-62 melanoma"}, "XF 498 CNS": {"test_system": "XF 498 CNS"}}, "note": "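Tested at 5 concentrations; 48 h exposure; 96-well plates; endpoints linearly interpolated, else capped at highest concentration. TGI marks complete inhibition of growth.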", "data": [{"smiles": "S=C(Nc1ccccc1)Nc1ccccc1SC(/C=C/NNC1=NC(c2ccccc2)C(c2ccccc2)=NN1)c1ccccc1", "note": "(stereo unspecified)", "values": [{"measurement": "TGI", "setting": "786-0 renal", "result": "> 100", "unit": "µM"}, {"measurement": "TGI", "setting": "A498 renal", "result": "> 100", "unit": "µM"}, {"measurement": "TGI", "setting": "A549 NSCLC", "result": "> 100", "unit": "µM"}, {"measurement": "TGI", "setting": "ACHN renal", "result": "> 100", "unit": "µM"}, {"measurement": "TGI", "setting": "CAKI-1 renal", "result": "> 100", "unit": "µM"}, {"measurement": "TGI", "setting": "CCRF-CEM leukemia", "result": "> 100", "unit": "µM"}, {"measurement": "TGI", "setting": "COLO 205 colon", "result": "> 100", "unit": "µM"}, {"measurement": "TGI", "setting": "DLD-1 colon", "result": "> 100", "unit": "µM"}, {"measurement": "TGI", "setting": "DMS 114 small cell lung", "result": "> 100", "unit": "µM"}, {"measurement": "TGI", "setting": "DMS 273 small cell lung", "result": "> 100", "unit": "µM"}, {"measurement": "TGI", "setting": "EKVX NSCLC", "result": "> 100", "unit": "µM"}, {"measurement": "TGI", "setting": "HCC-2998 colon", "result": "> 100", "unit": "µM"}, {"measurement": "TGI", "setting": "HCT-116 colon", "result": "> 100", "unit": "µM"}, {"measurement": "TGI", "setting": "HCT-15 colon", "result": "> 100", "unit": "µM"}, {"measurement": "TGI", "setting": "HL-60(TB) leukemia", "result": "> 100", "unit": "µM"}, {"measurement": "TGI", "setting": "HOP-62 NSCLC", "result": 64.5, "unit": "µM"}, {"measurement": "TGI", "setting": "HOP-92 NSCLC", "result": 84.2, "unit": "µM"}, {"measurement": "TGI", "setting": "HT29 colon", "result": "> 100", "unit": "µM"}, {"measurement": "TGI", "setting": "IGROV1 ovarian", "result": "> 100", "unit": "µM"}, {"measurement": "TGI", "setting": "K-562 leukemia", "result": "> 100", "unit": "µM"}, {"measurement": "TGI", "setting": "KM12 colon", "result": "> 100", "unit": "µM"}, {"measurement": "TGI", "setting": "KM20L2 colon", "result": "> 100", "unit": "µM"}, {"measurement": "TGI", "setting": "LOX IMVI melanoma", "result": "> 100", "unit": "µM"}, {"measurement": "TGI", "setting": "M14 melanoma", "result": "> 100", "unit": "µM"}, {"measurement": "TGI", "setting": "M19-MEL melanoma", "result": "> 100", "unit": "µM"}, {"measurement": "TGI", "setting": "MALME-3M melanoma", "result": "> 100", "unit": "µM"}, {"measurement": "TGI", "setting": "MOLT-4 leukemia", "result": "> 100", "unit": "µM"}, {"measurement": "TGI", "setting": "NCI-H460 lung", "result": "> 100", "unit": "µM"}, {"measurement": "TGI", "setting": "NCI-H522 lung", "result": "> 100", "unit": "µM"}, {"measurement": "TGI", "setting": "OVCAR-3 ovarian", "result": "> 100", "unit": "µM"}, {"measurement": "TGI", "setting": "OVCAR-4 ovarian", "result": "> 100", "unit": "µM"}, {"measurement": "TGI", "setting": "OVCAR-5 ovarian", "result": "> 100", "unit": "µM"}, {"measurement": "TGI", "setting": "OVCAR-8 ovarian", "result": "> 100", "unit": "µM"}, {"measurement": "TGI", "setting": "RPMI-8226 leukemia", "result": "> 100", "unit": "µM"}, {"measurement": "TGI", "setting": "RXF 393 renal", "result": 44.6, "unit": "µM"}, {"measurement": "TGI", "setting": "RXF-631 renal", "result": "> 100", "unit": "µM"}, {"measurement": "TGI", "setting": "SF-268 CNS", "result": "> 100", "unit": "µM"}, {"measurement": "TGI", "setting": "SF-295 CNS", "result": "> 100", "unit": "µM"}, {"measurement": "TGI", "setting": "SF-539 CNS", "result": "> 100", "unit": "µM"}, {"measurement": "TGI", "setting": "SK-MEL-2 melanoma", "result": "> 100", "unit": "µM"}, {"measurement": "TGI", "setting": "SK-MEL-28 melanoma", "result": "> 100", "unit": "µM"}, {"measurement": "TGI", "setting": "SK-MEL-5 melanoma", "result": "> 100", "unit": "µM"}, {"measurement": "TGI", "setting": "SK-OV-3 ovarian", "result": "> 100", "unit": "µM"}, {"measurement": "TGI", "setting": "SN12C renal", "result": "> 100", "unit": "µM"}, {"measurement": "TGI", "setting": "SNB-19 CNS", "result": "> 100", "unit": "µM"}, {"measurement": "TGI", "setting": "SNB-78 CNS", "result": "> 100", "unit": "µM"}, {"measurement": "TGI", "setting": "SW-620 colon", "result": "> 100", "unit": "µM"}, {"measurement": "TGI", "setting": "TK-10 renal", "result": "> 100", "unit": "µM"}, {"measurement": "TGI", "setting": "U251 CNS", "result": "> 100", "unit": "µM"}, {"measurement": "TGI", "setting": "UACC-62 melanoma", "result": "> 100", "unit": "µM"}, {"measurement": "TGI", "setting": "XF 498 CNS", "result": "> 100", "unit": "µM"}]}]}
